In ChEMBL document CHEMBL1201862, “PubChem BioAssay data set” (2004):
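Exposure lasted 48 hours, with cells grown in 96-well plates and compounds tested at five concentrations. Abbreviation: GI50, concentration required for 50% inhibition of growth.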 Calls of active or inactive are those of the source. Rule as the data show it: active = GI50 up to about 1.1 µM and inactive = higher.

How the values were obtained:
Test in all cases: DTP human tumour cell line panel, 48 h
M19-MEL = system: M19-MEL
HCC 2998 = system: HCC 2998
ACHN = system: ACHN
SK-MEL-28 = system: SK-MEL-28
SW-620 = system: SW-620
SN12C = system: SN12C
CAKI-1 = system: CAKI-1
KM-20L2 = system: KM-20L2
NCI-H460 = system: NCI-H460
DMS-273 = system: DMS-273
NCI-H23 = system: NCI-H23
IGROV-1 = system: IGROV-1
SNB-19 = system: SNB-19
RXF 393 = system: RXF 393
M14 = system: M14
HOP-92 = system: HOP-92
SF-268 = system: SF-268
KM12 = system: KM12
SNB-78 = system: SNB-78
786-0 = system: 786-0
HCT-15 = system: HCT-15
COLO 205 = system: COLO 205
HT-29 = system: HT-29
LOX IMVI = system: LOX IMVI
DLD-1 = system: DLD-1
RPMI-8226 = system: RPMI-8226
HCT-116 = system: HCT-116
SK-MEL-2 = system: SK-MEL-2
HOP-62 = system: HOP-62
UACC-62 = system: UACC-62
SF-295 = system: SF-295
SK-OV-3 = system: SK-OV-3
OVCAR-4 = system: OVCAR-4
OVCAR-5 = system: OVCAR-5
K562 = system: K562
MOLT-4 = system: MOLT-4
CCRF-CEM = system: CCRF-CEM
SNB-75 = system: SNB-75
UO-31 = system: UO-31
SK-MEL-5 = system: SK-MEL-5
OVCAR-8 = system: OVCAR-8
SF-539 = system: SF-539
U-251 = system: U-251
HL-60 = system: HL-60
EKVX = system: EKVX
Malme-3M = system: Malme-3M
SR = system: SR
OVCAR-3 = system: OVCAR-3
A549 = system: A549
A498 = system: A498
DMS-114 = system: DMS-114
XF498 = system: XF498
NCI-H522 = system: NCI-H522
LXFL 529 = system: LXFL 529
NCI-H226 = system: NCI-H226
HOP-18 = system: HOP-18
UACC-257 = system: UACC-257
TK-10 = system: TK-10

For CC1C=CC(C(N)C(=O)O)O1 (centres undefined), the GI50 (M19-MEL) was > 100 µM (inactive), the GI50 (HCC 2998) was > 100 µM (inactive) and the GI50 (ACHN) was > 100 µM (inactive). The GI50 (SK-MEL-28) was > 100 µM (inactive), the GI50 (SW-620) was > 100 µM (inactive) and the GI50 (SN12C) was > 100 µM (inactive). The GI50 (CAKI-1) was > 100 µM (inactive), the GI50 (KM-20L2) was > 100 µM (inactive) and the GI50 (NCI-H460) was > 100 µM (inactive). The GI50 (DMS-273) was > 100 µM (inactive), the GI50 (NCI-H23) was > 100 µM (inactive) and the GI50 (IGROV-1) was > 100 µM (inactive). For the same compound, the GI50 (SNB-19) was > 100 µM (inactive), the GI50 (RXF 393) was > 100 µM (inactive) and the GI50 (M14) was > 100 µM (inactive). For the same compound, the GI50 (HOP-92) was > 100 µM (inactive), the GI50 (SF-268) was > 100 µM (inactive) and the GI50 (KM12) was > 100 µM (inactive). The GI50 (SNB-78) was > 100 µM (inactive), the GI50 (786-0) was > 100 µM (inactive) and the GI50 (HCT-15) was > 100 µM. The GI50 (COLO 205) was > 100 µM (inactive), the GI50 (HT-29) was > 100 µM (inactive) and the GI50 (LOX IMVI) was > 100 µM (inactive). For the same compound, the GI50 (DLD-1) was > 100 µM (inactive), the GI50 (RPMI-8226) was > 100 µM (inactive) and the GI50 (HCT-116) was > 100 µM (inactive). The GI50 (SK-MEL-2) was > 100 µM (inactive), the GI50 (HOP-62) was > 100 µM (inactive) and the GI50 (UACC-62) was > 100 µM (inactive). The GI50 (SF-295) was > 100 µM (inactive), the GI50 (SK-OV-3) was > 100 µM (inactive) and the GI50 (OVCAR-4) was > 100 µM (inactive). For the same compound, the GI50 (OVCAR-5) was > 100 µM (inactive), the GI50 (K562) was 51.3 µM (inactive) and the GI50 (MOLT-4) was > 100 µM (inactive). The GI50 (CCRF-CEM) was > 100 µM (inactive), the GI50 (SNB-75) was > 100 µM (inactive) and the GI50 (UO-31) was > 100 µM (inactive). The GI50 (SK-MEL-5) was > 100 µM (inactive), the GI50 (OVCAR-8) was > 100 µM (inactive) and the GI50 (SF-539) was > 100 µM (inactive). The GI50 (U-251) was > 100 µM (inactive), the GI50 (HL-60) was > 100 µM (inactive) and the GI50 (EKVX) was > 100 µM (inactive). For the same compound, the GI50 (Malme-3M) was > 100 µM (inactive), the GI50 (SR) was > 100 µM (inactive) and the GI50 (OVCAR-3) was > 100 µM (inactive). The GI50 (A549) was > 100 µM (inactive), the GI50 (A498) was > 100 µM (inactive) and the GI50 (DMS-114) was > 100 µM (inactive). The GI50 (XF498) was > 100 µM (inactive), the GI50 (NCI-H522) was > 100 µM (inactive) and the GI50 (LXFL 529) was > 100 µM (inactive). The GI50 (NCI-H226) was > 100 µM (inactive).
With CC1OC(n2ccc(=O)[nH]c2=O)C=C(OC(=O)c2ccccc2)C1=O (centres undefined) the GI50 (M19-MEL) was > 100 µM (inactive), the GI50 (ACHN) was 76.7 µM (inactive) and the GI50 (SK-MEL-28) was 48.6 µM (inactive). For the same compound, the GI50 (SW-620) was 64.6 µM (inactive), the GI50 (SN12C) was 88.3 µM (inactive) and the GI50 (CAKI-1) was 42.6 µM (inactive). For the same compound, the GI50 (HOP-18) was 38.4 µM (inactive), the GI50 (UACC-257) was 86.9 µM (inactive) and the GI50 (KM-20L2) was 73.5 µM (inactive). The GI50 (NCI-H460) was 48.6 µM (inactive), the GI50 (DMS-273) was > 100 µM (inactive) and the GI50 (NCI-H23) was 36.6 µM (inactive). The GI50 (IGROV-1) was > 100 µM (inactive), the GI50 (SNB-19) was > 100 µM (inactive) and the GI50 (RXF 393) was 95.5 µM (inactive). The GI50 (M14) was 88.9 µM (inactive), the GI50 (HOP-92) was 30.2 µM (inactive) and the GI50 (SNB-78) was > 100 µM (inactive). For the same compound, the GI50 (786-0) was > 100 µM (inactive), the GI50 (HCT-15) was > 100 µM and the GI50 (COLO 205) was > 100 µM (inactive). The GI50 (HT-29) was 44.6 µM (inactive), the GI50 (LOX IMVI) was 35.7 µM (inactive) and the GI50 (DLD-1) was > 100 µM (inactive). For the same compound, the GI50 (RPMI-8226) was > 100 µM (inactive), the GI50 (HOP-62) was 71.9 µM (inactive) and the GI50 (UACC-62) was > 100 µM (inactive). The GI50 (SF-295) was 51.1 µM (inactive), the GI50 (SK-OV-3) was > 100 µM (inactive) and the GI50 (TK-10) was 49 µM (inactive). For the same compound, the GI50 (OVCAR-4) was 18.9 µM (inactive), the GI50 (K562) was > 100 µM (inactive) and the GI50 (MOLT-4) was > 100 µM (inactive). The GI50 (CCRF-CEM) was > 100 µM (inactive), the GI50 (SNB-75) was 27 µM (inactive) and the GI50 (UO-31) was 55.6 µM (inactive). The GI50 (SK-MEL-5) was 56.1 µM (inactive), the GI50 (OVCAR-8) was 45 µM (inactive) and the GI50 (SF-539) was > 100 µM (inactive). For the same compound, the GI50 (U-251) was 29 µM (inactive), the GI50 (HL-60) was > 100 µM (inactive) and the GI50 (EKVX) was > 100 µM (inactive). The GI50 (Malme-3M) was 74.6 µM (inactive), the GI50 (OVCAR-3) was 26.9 µM (inactive) and the GI50 (A549) was 39.3 µM (inactive). The GI50 (XF498) was 21.2 µM (inactive).
For Cc1c(-c2coc(-c3ccccc3)n2)c(=O)n(-c2ccccc2)n1C, the GI50 (M19-MEL) was 56.2 µM (inactive), the GI50 (HCC 2998) was 0.1 µM (active) and the GI50 (ACHN) was > 100 µM (inactive). The GI50 (SK-MEL-28) was > 100 µM (inactive), the GI50 (SW-620) was 37.8 µM (inactive) and the GI50 (SN12C) was > 100 µM (inactive). The GI50 (CAKI-1) was 0.184 µM (active), the GI50 (UACC-257) was 49.7 µM (inactive) and the GI50 (KM-20L2) was > 100 µM (inactive). For the same compound, the GI50 (NCI-H460) was > 100 µM (inactive), the GI50 (DMS-273) was > 100 µM (inactive) and the GI50 (NCI-H23) was > 100 µM (inactive). The GI50 (IGROV-1) was > 100 µM (inactive), the GI50 (SNB-19) was > 100 µM (inactive) and the GI50 (M14) was > 100 µM (inactive). The GI50 (HOP-92) was > 100 µM (inactive), the GI50 (SF-268) was > 100 µM (inactive) and the GI50 (KM12) was > 100 µM (inactive). For the same compound, the GI50 (SNB-78) was > 100 µM (inactive), the GI50 (786-0) was > 100 µM (inactive) and the GI50 (HCT-15) was > 100 µM. The GI50 (COLO 205) was 78.3 µM (inactive), the GI50 (HT-29) was 57.7 µM (inactive) and the GI50 (LOX IMVI) was > 100 µM (inactive). For the same compound, the GI50 (DLD-1) was > 100 µM (inactive), the GI50 (RPMI-8226) was 36.5 µM (inactive) and the GI50 (HCT-116) was > 100 µM (inactive). For the same compound, the GI50 (SK-MEL-2) was > 100 µM (inactive), the GI50 (HOP-62) was > 100 µM (inactive) and the GI50 (SF-295) was > 100 µM (inactive). The GI50 (SK-OV-3) was > 100 µM (inactive), the GI50 (TK-10) was > 100 µM (inactive) and the GI50 (OVCAR-4) was > 100 µM (inactive). For the same compound, the GI50 (OVCAR-5) was > 100 µM (inactive), the GI50 (MOLT-4) was 25.6 µM (inactive) and the GI50 (CCRF-CEM) was > 100 µM (inactive). The GI50 (SNB-75) was > 100 µM (inactive), the GI50 (UO-31) was 84.7 µM (inactive) and the GI50 (SK-MEL-5) was 25.2 µM (inactive). The GI50 (OVCAR-8) was 44.6 µM (inactive), the GI50 (SF-539) was > 100 µM (inactive) and the GI50 (U-251) was > 100 µM (inactive). For the same compound, the GI50 (HL-60) was 76.7 µM (inactive), the GI50 (Malme-3M) was 98.6 µM (inactive) and the GI50 (SR) was 45.5 µM (inactive). For the same compound, the GI50 (OVCAR-3) was > 100 µM (inactive), the GI50 (A549) was > 100 µM (inactive) and the GI50 (A498) was > 100 µM (inactive). The GI50 (DMS-114) was 36.6 µM (inactive), the GI50 (XF498) was 23 µM (inactive) and the GI50 (NCI-H522) was 29.1 µM (inactive). The GI50 (LXFL 529) was 58.1 µM (inactive) and the GI50 (NCI-H226) was 94.4 µM (inactive).
